{"source": "patent US10738013B2", "about": "“Eluxadoline crystalline forms and processes for their preparation” (priority 2017, dated 2020)", "key": {"Dissolution test": {"experiment": "Dissolution test", "type": "physicochemical", "settings": "50 mM phosphate buffer pH=7.4, 37° C., 110 rpm", "description": "Dissolution tests were performed by means of Sotax AT7 Smart equipped with 6×800 mL volume vessels and using a 50 mM phosphate buffer pH=7.4, previously heated to 37° C. 20 mg of the sample to be tested were placed in each vessel, and stirred (with paddles) at 110 rpm for 60 minutes at 37±0.2° C. Aliquots were taken at 5, 10, 20, 30, 45 and 60 min, filtered through 0.45 μm Chromafil Xtra RC 45/25 syringe filter and analysed by UV/VIS spectrometer Perkin Elmer Lambda 35, 1 cm quartz cell (absorbance at 203 nm). pH was determined using a Mettler Toledo pH Meter FE20 equipped with a InLab®420 electrode.\nA portion of the product was subjected to a dissolution test in 50 mM phosphate buffer at pH=7.4 giving the results summarised below: […]"}, "[1]": {"experiment": "Thermal (polymorphic) stability at 120° C. by XRPD", "type": "physicochemical", "settings": "maintained at 120° C. for 24 or 48 hours, cooled to room temperature", "description": "By “polymorphically stable” it is meant that the crystalline Form α′ of the present invention when stored under stressed conditions i.e., up to a temperature of 120° C. for 24 or 48 hours, show no signs of crystallinity associated to other polymorphs of eluxadoline (e.g. Form β) as judged by the absence of their relevant peaks in an X-ray powder diffractogram (XRPD).\nAnalyses were performed on a Bruker AXS D8 Advance diffractometer (40 kV, 40 mA, λ=1.5418 Å), equipped with a linear Lynxeye position sensitive detector, set at 300 mm from the sample (Ni-filtered Cu-Kα1,2 radiation). Data collection was made in coupled mode and in theta-theta configuration, in the 3-30° 2-theta, sampling with a 0.02° step scan. Samples were gently ground in an agate mortar, and then deposited in the 0.2 mm-deep hollow of a silicon monocrystal zero background plate.\nThe polymorphically and chemically stable form α′ of eluxadoline, prepared as described in Examples 10 to 12, were maintained at 120° C. for 24 or 48 hours."}}}
{"smiles": "COc1ccc(CN(C(=O)[C@@H](N)Cc2c(C)cc(C(N)=O)cc2C)[C@@H](C)c2nc(-c3ccccc3)c[nH]2)cc1C(=O)O", "note": "[form α′, 5-({[(2S)-2-amino-3-(4-carbamoyl-2,6-dimethylphenyl)propanoyl][(1S)-1-(4-phenyl-1H-imidazol-2-yl)ethyl]amino}methyl)-2-methoxybenzoic acid]", "values": [{"measurement": "% dissolved", "setting": "Dissolution test; 5 min", "value": 6.06, "unit": "%"}, {"measurement": "% dissolved", "setting": "Dissolution test; 10 min", "value": 13.93, "unit": "%"}, {"measurement": "% dissolved", "setting": "Dissolution test; 20 min", "value": 17.81, "unit": "%"}, {"measurement": "% dissolved", "setting": "Dissolution test; 30 min", "value": 27.87, "unit": "%"}, {"measurement": "% dissolved", "setting": "Dissolution test; 45 min", "value": 38.40, "unit": "%"}, {"measurement": "% dissolved", "setting": "Dissolution test; 60 min", "value": 60.17, "unit": "%"}, {"measurement": "XRPD after thermal stress (polymorphic stability)", "setting": "[1]", "value": "XRPD spectrum corresponding to the one obtained in example 10"}]}
